In patent US6790951B1, “Expression system in microorganism and its use for expressing heterologous and homologous proteins” (priority 1995, dated 2004):
Ends that are not written are not given here.

Tests used:
[1] = tested on: Lactobacillus plantarum C11; assay: Induction of bacteriocin production / gene expression in Lactobacillus plantarum C11; assay type: cell-based
Protocol: Experiments similar to the ones described in examples 1 and 2 were conducted with the bacteriocin producing strain Lactobacillus plantarum C11. These experiments yielded results that were essentially similar to the results described in examples 1 and 2. The sequence of the amphiphilic inducing peptide for the Lactobacillus plantarum C11 regulatory system is: […](26 residues) (SEQ. ID. NO: 1).
Observations essentially similar to the ones described by examples 1,2, and 4 have been made in relation to bacteriocin production by Lactobacillus plantarum C11. This strain produces a large number of bacteriocins, corresponding immunity proteins, and the 26-residue inducing peptide described in example 3. The corresponding genes have been cloned and sequenced. […] Promoter elements in front of the transcription start-points resemble those found in front of the genes involved in sakacin P production, as indicated in FIG. 4.
A 26-residue peptide (SEQ ID NO:1) with the sequence given in example 3 was synthesized.

[2] = Stability of the inducing component of culture medium to proteinase K and boiling; assay type: physicochemical
Description: (§1) The Bac^+ phenotype of cells in this bacterial culture was lost upon diluting a Bac^+ LTH673 culture more than ˜2000-fold in fresh MRS-medium. […] Loss of the Bac^+ phenotype upon dilution or plating could be prevented by adding supernatant of an overnight Bac^+ LTH673 culture at an end concentration of minimally 0.05% (v/v). […] Colonies obtained after plating cells from a Bac^− culture in the presence of supernatant from a Bac^+ culture all were Bac^+.

[3] = tested on: genes involved in sakacin P production (FIG. 1) in Lactobacillus sake LTH673; assay: Northern blotting of transcripts of the sakacin P genes in Bac- LTH673 cultures after adding the peptide; assay type: cell-based; conditions: purified or synthetic peptide
Description: 5. In bacteriocin deficient cultures of LTH673, transcription of the genes depicted in FIG. 1 could not be detected (by Northern blotting).
In cultures of Lactobacillus sake LTH673 with the Bac^− phenotype, transcription of the genes depicted in FIG. 1 could not be detected at any stage during growth (by Northern blotting).

[4] = tested on: Lactobacillus sake LTH673; assay: Induction or maintenance of bacteriocin (sakacin P) production, inducing-peptide production and immunity in Lactobacillus sake LTH673 cultures; assay type: cell-based; conditions: for induction of immunity to sakacin P / induction of production of the inducing peptide itself: added to Bac- Lactobacillus sake LTH673 cells; for induction of bacteriocin (sakacin P) production: added to Bac- Lactobacillus sake LTH673 cultures
Description: This bacteriocin was later shown to be sakacin P (ref. 8). Bacterial cultures obtained by inoculating MRS medium (Difco Laboratories, Detroit, Mich., USA; or Oxoid ltd. Basingstoke, Hampshire, England) with material from this glycerol-stock produced sakacin P (Bac^+ phenotype) and, accordingly, were immune to purified sakacin P.
as §1
As indicated above Bac^− colonies of Lactobacillus sake LTH673 were obtained after plating cells from a Bac^+ culture. […] Glycerol stocks of such Bac^− cultures were made and fresh cultures obtained after inoculating MRS medium with an inoculum from such a glycerol stock again were Bac^−. In all cases tested, the only way to restore bacteriocin production was to add supernatant of a Bac^+ culture that thus, apparently, contains an inducing substance.
Lb. sake LTH673 (Bac^+) is immune to purified sakacin P and to several related purified bacteriocins. Immunity is caused by a specific protein that is produced concomitantly with the bacteriocin. Accordingly, we observed that the loss and induction of the Bac^+ phenotype was invariably accompanied by, respectively, the loss and induction of immunity to sakacin P. Another trait invariably linked to changes in the Bac phenotype was the inducing capacity itself: this capacity was only present in supernatants of Bac^+ cultures but not in the supernatants of Bac^− cultures.

Sequence	induction of gene expression (bacteriocin, immunity and inducing peptide genes) ([1]; Bac- cultures of Lactobacillus plantarum C11)	inducing effects of the synthetic peptide compared with Bac+ culture supernatants and the purified peptide ([1]; synthetic peptide, in Lactobacillus plantarum C11)	inducing activity after boiling ([2]; boiling for 10 minutes)	inducing activity after proteinase K treatment ([2]; culture medium treated with proteinase K)	detection of transcripts of the genes of FIG. 1 [3]	time until transcripts could be detected after adding the peptide [3]	induction of immunity to sakacin P [4]	induction of production of the inducing peptide itself [4]	induction of immunity to sakacin P ([4]; listed as purified peptide)	induction of production of the inducing peptide itself ([4]; listed as purified peptide)	induction of bacteriocin (sakacin P) production [4]	induction of bacteriocin (sakacin P) production ([4]; listed as purified peptide)	inducing effects of the synthetic peptide compared with Bac+ culture supernatants and the purified peptide ([4]; synthetic peptide, in Lactobacillus sake LTH673)
KSSAYSLQMGATAIKQVKKLFKKWGW [26-residue inducing peptide]	gene expression can be induced	same inducing effects											
MAGNSSNFIHKIKQIFTHR [19-residue peptide, purified or chemically synthesized]			not after boiling	lost	several transcripts could be detected	≤ 30 min	restored	restored	resulted in the induction	resulted in the induction	restored	resulted in the induction	same inducing effects
